Data reported in PubChem BioAssay AID1224891.

Target: Tyrosine-protein kinase JAK3 (Homo sapiens) (UniProt P52333)
Test: JAK3 kinase inhibitors, dose response, biochemical, purified enzyme (AID 1224891)
Conditions: recombinant JAK3 kinase domain, 32P-ATP radiometric

Sequence of Tyrosine-protein kinase JAK3 (Homo sapiens) (P52333 whole entry, looked up): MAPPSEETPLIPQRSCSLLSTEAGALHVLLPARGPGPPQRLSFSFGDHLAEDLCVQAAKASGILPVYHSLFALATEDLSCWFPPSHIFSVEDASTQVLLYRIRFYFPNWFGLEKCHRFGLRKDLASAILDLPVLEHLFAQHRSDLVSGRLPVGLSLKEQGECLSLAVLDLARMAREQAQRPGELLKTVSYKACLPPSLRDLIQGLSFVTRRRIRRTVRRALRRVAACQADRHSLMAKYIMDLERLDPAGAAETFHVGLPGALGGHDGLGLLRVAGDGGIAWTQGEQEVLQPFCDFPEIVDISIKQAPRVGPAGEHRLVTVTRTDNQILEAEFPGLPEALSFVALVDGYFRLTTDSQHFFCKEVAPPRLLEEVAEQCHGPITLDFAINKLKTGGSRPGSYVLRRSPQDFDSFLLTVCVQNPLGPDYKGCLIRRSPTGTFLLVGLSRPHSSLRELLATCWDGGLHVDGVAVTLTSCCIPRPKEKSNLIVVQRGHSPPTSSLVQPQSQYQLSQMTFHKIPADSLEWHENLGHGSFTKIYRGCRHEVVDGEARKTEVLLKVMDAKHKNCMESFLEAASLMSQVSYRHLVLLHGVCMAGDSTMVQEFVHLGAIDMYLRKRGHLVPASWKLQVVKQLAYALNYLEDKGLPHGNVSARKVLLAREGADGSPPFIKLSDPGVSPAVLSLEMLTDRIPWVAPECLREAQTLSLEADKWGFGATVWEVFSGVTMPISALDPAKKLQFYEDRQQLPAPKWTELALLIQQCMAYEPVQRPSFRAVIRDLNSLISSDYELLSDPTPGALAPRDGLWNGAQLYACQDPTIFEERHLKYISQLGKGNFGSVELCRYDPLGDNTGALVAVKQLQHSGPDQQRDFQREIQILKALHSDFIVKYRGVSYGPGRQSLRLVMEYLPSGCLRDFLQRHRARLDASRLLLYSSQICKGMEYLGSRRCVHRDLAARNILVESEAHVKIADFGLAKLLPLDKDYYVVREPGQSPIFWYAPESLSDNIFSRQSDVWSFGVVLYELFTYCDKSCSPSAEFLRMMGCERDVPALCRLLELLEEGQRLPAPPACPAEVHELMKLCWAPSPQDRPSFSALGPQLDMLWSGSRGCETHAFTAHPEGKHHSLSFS

IC50: 1.92 µM
Structure (SMILES): CCOC(=O)c1c[nH]c2ncnc(-c3cc(NC(=O)CC)ccc3F)c12
